In the NIST ThermoML archive (doi:10.1021/acs.jced.8b01128):
Numbers after ± are expanded uncertainties.

Columns and labels:
[1] = refractive index (Na D-line) (dimensionless); settings: 298.15 K; 101.33 kPa; Liquid; Standard Abbe refractometry
[2] = 298.15 K; 101.33 kPa; Liquid; Pycnometric method

refractive index [1]	mass density [2]	SMILES
1.33299 ± 0.012	–	O [water]
1.43159 ± 0.012	–	OCCO [1,2-ethanediol]
1.43262 ± 0.012	1032.7 ± 0.4 kg/m3	CC(O)CO (centres undefined) [1,2-propanediol]
